Measured values reported in US5298495A, “Partricin derivatives” (SPA Societa' Prodotti Antibiotici SpA, priority 1990, dated 1994).
In brackets after ≈: the same amount, converted by molar mass. Like-named read-outs stand apart in the source and are kept apart here.

Legend:
[1] = tested on: C. albicans 73; assay: Microbiological activity on C. albicans (MIC); format: cell-based; details: Fluid Sab. Med, 36° C.; for MIC: Candida albicans, 73
Source text: (§1) MIC (ng/ml) Hemolytic con.(mcg/ml)
(§2) C. albicans 73 rat erytrocytes, […]

[2] = tested on: rat erytrocytes; assay: Hemolytic activity on rat erythrocytes; format: cell-based
Source text: as §1, §2

[3] = tested on: mice; assay: Acute toxicity in mice (DL50); format: in vivo
[4] = Acute toxicity in mice (DL50); format: in vivo; details: mouse, in vivo
[5] = cited from earlier work
[6] = Solubility and reaction in water; format: physicochemical
[7] = 24 h, read-out: MIC C. albicans 73, 24 h
[8] = 48 h, read-out: MIC C. albicans 73, 48 h
[9] = rat erytrocytes, 4 h at 37° C., minimum
[10] = rat erytrocytes, 4 h at 37° C., total

Compound | MIC [1, 7] [µg/mL] | MIC [1, 8] [µg/mL] | Hemolytic con. total (THC) [2] [µg/mL] | Hemolytic con. min. (MHC) ([2]; rat, 240 min) [µg/mL] | LD50 ([4]; ip, read-out: DL50 mice i.p.) [mg/kg] | further results
CNc1ccc(C(=O)CC(O)CCC(C)C2OC(=O)CC(O)CC(=O)CC(O)CC(O)CC(O)CC(O)CC3(O)CC(O)C(C(=O)N4CCN(C)CC4)C(CC(OC4OC(C)C(O)C(NC(=O)CN5CCN(CCO)CC5)C4O)C=CC=CC=CC=CC=CC=CC=CC2C)O3)cc1 (centres unmarked) [Partr. A, drawing 48, drawing 49] | 0.0075 (≈ 0.00544 µM) | 0.015 (≈ 0.0109 µM) | 0.7 | 0.2 | – | –
partricin [Partr., H, OH, reference compound] | – | – | – | – | – | DL50 mice i.p. [3]: 0.63 mg/kg; MIC C. albicans 73, 24 h ([1]; 24 h): 0.03 µg/mL; MIC C. albicans 73, 48 h ([1]; 48 h): 0.06 µg/mL; Hemolytic con. min. (MHC) [2, 9]: < 0.2 µg/mL; Hemolytic con. total (THC) [2, 10]: < 0.2 µg/mL
CNc1ccc(C(=O)CC(O)CCC(C)C2OC(=O)CC(O)CC(=O)CC(O)CC(O)CC(O)CC(O)CC3(O)CC(O)C(C(=O)N4CCN(CCO)CC4)C(CC(OC4OC(C)C(O)C(NC(=O)CN5CCN(C)CC5)C4O)C=CC=CC=CC=CC=CC=CC=CC2C)O3)cc1 (centres unmarked) [Partr. A, drawing 40, drawing 41] | 0.015 (≈ 0.0109 µM) | 0.0212 (≈ 0.0154 µM) | 2 | 0.2 | – | –
CNc1ccc(C(=O)CC(O)CCC(C)C2OC(=O)CC(O)CC(=O)CC(O)CC(O)CC(O)CC(O)CC3(O)CC(O)C(C(=O)N4CCN(CCO)CC4)C(CC(OC4OC(C)C(O)C(NC(=O)CN5CCN(CCO)CC5)C4O)C=CC=CC=CC=CC=CC=CC=CC2C)O3)cc1 (centres unmarked) [Partr. A, drawing 46, drawing 47] | 0.0106 (≈ 0.00752 µM) | 0.0212 (≈ 0.015 µM) | 0.7 | 0.2 | – | –
CNc1ccc(C(=O)CC(O)CCC(C)C2OC(=O)CC(O)CC(=O)CC(O)CC(O)CC(O)CC(O)CC3(O)CC(O)C(C(=O)N4CCN(C)CC4)C(CC(OC4OC(C)C(O)C(NC(=O)CN5CCN(C)CC5)C4O)C=CC=CC=CC=CC=CC=CC=CC2C)O3)cc1 (centres unmarked) [Partr. A, drawing 42, drawing 43] | 0.0075 (≈ 0.00556 µM) | 0.0212 (≈ 0.0157 µM) | – | – | 3.8 | Hemolytic con. min. (MHC) [2, 9]: 0.2 µg/mL; Hemolytic con. total (THC) [2, 10]: 0.7 µg/mL
CNc1ccc(C(=O)CC(O)CCC(C)C2OC(=O)CC(O)CC(=O)CC(O)CC(O)CC(O)CC(O)CC3(O)CC(O)C(C(=O)NCCN(C)C)C(CC(OC4OC(C)C(O)C(NC(=O)CCN5CCCCC5)C4O)C=CC=CC=CC=CC=CC=CC=CC2C)O3)cc1 (centres unmarked) [Partr. A, drawing 33, NHCH2 CH2N(CH3)2] | 0.0075 (≈ 0.00561 µM) | 0.03 (≈ 0.0224 µM) | 18 | 6 | 43.6 | –
mepartricin | – | – | – | – | – | solubility in water of mepartricin (words, background) [5]: water-insoluble
mepartricin [Partr., H, OCH3, reference compound] | – | – | – | – | – | DL50 mice i.p. [3]: 15.8 mg/kg; DL50 mice i.v. ([3]; i.v.): 5.02 mg/kg; MIC C. albicans 73, 24 h ([1]; 24 h): 0.0075 µg/mL; MIC C. albicans 73, 48 h ([1]; 48 h): 0.03 µg/mL; Hemolytic con. min. (MHC) [2, 9]: 0.7 µg/mL; Hemolytic con. total (THC) [2, 10]: 18 µg/mL
CNc1ccc(C(=O)CC(O)CCC(C)C2OC(=O)CC(O)CC(=O)CC(O)CC(O)CC(O)CC(O)CC3(O)CC(O)C(C(=O)N4CCN(CCO)CC4)C(CC(OC4OC(C)C(O)C(NC(=O)CCN5CCCCC5)C4O)C=CC=CC=CC=CC=CC=CC=CC2C)O3)cc1 (centres unmarked) [Partr. A, drawing 34, drawing 35] | 0.0075 (≈ 0.00544 µM) | 0.03 (≈ 0.0218 µM) | 2 | 0.2 | – | –
CNc1ccc(C(=O)CC(O)CCC(C)C2OC(=O)CC(O)CC(=O)CC(O)CC(O)CC(O)CC(O)CC3(O)CC(O)C(C(=O)N4CCN(C)CC4)C(CC(OC4OC(C)C(O)C(NC(=O)CCN5CCCCC5)C4O)C=CC=CC=CC=CC=CC=CC=CC2C)O3)cc1 (centres unmarked) [Partr. A, drawing 36, drawing 37] | 0.0075 (≈ 0.00556 µM) | 0.015 (≈ 0.0111 µM) | 3.5 | 0.2 | – | –
CNc1ccc(C(=O)CC(O)CCC(C)C2OC(=O)CC(O)CC(=O)CC(O)CC(O)CC(O)CC(O)CC3(O)CC(O)C(C(=O)NCCCN(C)C)C(CC(OC4OC(C)C(O)C(NC(=O)CN(C)C)C4O)C=CC=CC=CC=CC=CC=CC=CC2C)O3)cc1 (centres unmarked) | 0.015 (≈ 0.0116 µM) | 0.03 (≈ 0.0231 µM) | 10.4 | 0.2 | 12.4 | –
CNc1ccc(C(=O)CC(O)CCC(C)C2OC(=O)CC(O)CC(=O)CC(O)CC(O)CC(O)CC(O)CC3(O)CC(O)C(C(=O)NCCN(C)C)C(CC(OC4OC(C)C(O)C(NC(=O)CN5CCN(CCO)CC5)C4O)C=CC=CC=CC=CC=CC=CC=CC2C)O3)cc1 (centres unmarked) [Partr. A, drawing 45, NHCH2 CH2N(CH3)2] | 0.0075 (≈ 0.00548 µM) | 0.0212 (≈ 0.0155 µM) | 18 | 0.7 | > 100 | –
CNc1ccc(C(=O)CC(O)CCC(C)C2OC(=O)CC(O)CC(=O)CC(O)CC(O)CC(O)CC(O)CC3(O)CC(O)C(C(=O)NCCc4ccccn4)C(CC(OC4OC(C)C(O)C(NC(=O)CCN5CCCCC5)C4O)C=CC=CC=CC=CC=CC=CC=CC2C)O3)cc1 (centres unmarked) [Partr. A, drawing 51, drawing 52] | 0.03 (≈ 0.0219 µM) | 0.06 (≈ 0.0438 µM) | > 18 | 6 | > 300 | LD50 ([4]; iv, read-out: DL50 mice i.v.): 109 mg/kg
CNc1ccc(C(=O)CC(O)CCC(C)C2OC(=O)CC(O)CC(=O)CC(O)CC(O)CC(O)CC(O)CC3(O)CC(O)C(C(=O)OC)C(CC(OC4OC(C)C(O)C(NC(=O)CCN5CCCCC5)C4O)C=CC=CC=CC=CC=CC=CC=CC2C)O3)cc1 (centres unmarked) [Partr. A, drawing 32, OCH3] | 0.0075 (≈ 0.00586 µM) | 0.0424 (≈ 0.0331 µM) | 18 | 3.5 | > 30 | –
CNc1ccc(C(=O)CC(O)CCC(C)C2OC(=O)CC(O)CC(=O)CC(O)CC(O)CC(O)CC(O)CC3(O)CC(O)C(C(=O)N4CCN(CCO)CC4)C(CC(OC4OC(C)C(O)C(NC(=O)CN(C)C)C4O)C=CC=CC=CC=CC=CC=CC=CC2C)O3)cc1 (centres unmarked) [Partr. A, COCH2N(CH3)2, drawing 30] | 0.0075 (≈ 0.00566 µM) | 0.0212 (≈ 0.016 µM) | 0.7 | 0.2 | – | –
CNc1ccc(C(=O)CC(O)CCC(C)C2OC(=O)CC(O)CC(=O)CC(O)CC(O)CC(O)CC(O)CC3(O)CC(O)C(C(=O)OC)C(CC(OC4OC(C)C(O)C(NC(=O)CN5CCN(CCO)CC5)C4O)C=CC=CC=CC=CC=CC=CC=CC2C)O3)cc1 (centres unmarked) [Partr. A, drawing 44, OCH3] | 0.015 (≈ 0.0114 µM) | 0.03 (≈ 0.0229 µM) | 18 | 0.7 | > 30 | –
CNc1ccc(C(=O)CC(O)CCC(C)C2OC(=O)CC(O)CC(=O)CC(O)CC(O)CC(O)CC(O)CC3(O)CC(O)C(C(=O)NCCc4ccccn4)C(CC(OC4OC(C)C(O)C(NC(=O)CN(C)C)C4O)C=CC=CC=CC=CC=CC=CC=CC2C)O3)cc1 (centres unmarked) [Partr. A, COCH2N(CH3)2, drawing 50] | 0.015 (≈ 0.0114 µM) | 0.0424 (≈ 0.0322 µM) | > 18 | 18 | > 300 | LD50 ([4]; iv, read-out: DL50 mice i.v.): 76.8 mg/kg
CNc1ccc(C(=O)CC(O)CCC(C)C2OC(=O)CC(O)CC(=O)CC(O)CC(O)CC(O)CC(O)CC3(O)CC(O)C(C(=O)N4CCN(C)CC4)C(CC(OC4OC(C)C(O)C(NC(=O)CN(C)C)C4O)C=CC=CC=CC=CC=CC=CC=CC2C)O3)cc1 (centres unmarked) [Partr. A, COCH2N(CH3)2, drawing 31] | 0.0075 (≈ 0.00579 µM) | 0.0212 (≈ 0.0164 µM) | – | – | 3.6 | Hemolytic con. min. (MHC) [2, 9]: 0.2 µg/mL; Hemolytic con. total (THC) [2, 10]: 2 µg/mL
CNc1ccc(C(=O)CC(O)CCC(C)C2OC(=O)CC(O)CC(=O)CC(O)CC(O)CC(O)CC(O)CC3(O)CC(O)C(C(=O)NCCN(C)C)C(CC(OC4OC(C)C(O)C(NC(=O)CN(C)C)C4O)C=CC=CC=CC=CC=CC=CC=CC2C)O3)cc1 (centres unmarked) [Example 5, N-DIMETHYLAMINOACETYL-PARTRICIN A 2-DIMETHYL-AMINOETHYLAMIDE DIASPARTATE] | – | – | – | – | – | solubility in water [6]: soluble in water; pH of aqueous solution (almost neutral reaction) ([6]; in water): 6
CNc1ccc(C(=O)CC(O)CCC(C)C2OC(=O)CC(O)CC(=O)CC(O)CC(O)CC(O)CC(O)CC3(O)CC(O)C(C(=O)NCCN(C)C)C(CC(OC4OC(C)C(O)C(NC(=O)CN5CCN(C)CC5)C4O)C=CC=CC=CC=CC=CC=CC=CC2C)O3)cc1 (centres unmarked) [Partr. A, drawing 39, NHCH2 CH2N(CH3)2] | 0.0106 (≈ 0.00792 µM) | 0.03 (≈ 0.0224 µM) | 18 | 2 | > 100 | –
CNc1ccc(C(=O)CC(O)CCC(C)C2OC(=O)CC(O)CC(=O)CC(O)CC(O)CC(O)CC(O)CC3(O)CC(O)C(C(=O)NCCN(C)C)C(CC(OC4OC(C)C(O)C(NC(=O)CN(C)C)C4O)C=CC=CC=CC=CC=CC=CC=CC2C)O3)cc1 (centres unmarked) [Partr. A, COCH2N(CH3)2, NHCH2 CH2N(CH3)2, N-dimethylaminoacetyl-partricin A 2-dimethylaminoethylamide] | 0.0075 (≈ 0.00585 µM) | 0.015 (≈ 0.0117 µM) | > 18 | 18 | 158 | LD50 ([4]; iv, read-out: DL50 mice i.v.): 58 mg/kg
CNc1ccc(C(=O)CC(O)CCC(C)C2OC(=O)CC(O)CC(=O)CC(O)CC(O)CC(O)CC(O)CC3(O)CC(O)C(C(=O)OC)C(CC(OC4OC(C)C(O)C(NC(=O)CN5CCN(C)CC5)C4O)C=CC=CC=CC=CC=CC=CC=CC2C)O3)cc1 (centres unmarked) [Partr. A, drawing 38, OCH3] | 0.015 (≈ 0.0117 µM) | 0.03 (≈ 0.0234 µM) | 18 | 0.7 | 29.3 | –
